Experimental data reported in patent US11026426B2, “Oxadiazole and phenol derivatives as antibacterial and/or herbicidal agents” (NORTHERN ILLINOIS RESEARCH FOUNDATION, priority 2017, dated 2021).
Read-outs that look alike come from different tables or passages of the source.

Legend:
Corynebacterium xerosis = assay: Antibacterial preliminary screening CX; format: cell-based; settings: score 0-3; note: key: 0 represents no inhibition; 3 is comparable to commercial antibiotic control
AtIspF = AtIspF (Arabidopsis thaliana, UniProt Q9CAK8); assay: University of Hamburg photometric enzymatic inhibition assay AtIspF; format: biochemical
Description: (§1) Compounds were subjected to a photometric enzymatic assay to test for inhibition of the plant enzymes Arabidopsis thaliana IspD and IspF, and IspE from Lycopersicon esculentum.
The IspF assay mixture conditions were as follows: 100 mM Tris hydrochloride at pH 8.0 with 10 mM MgCl2, 1 mM dithiothreitol, 2.5 mM potassium phosphoenol pyruvate, 2 mM ATP, 1 mM of 4-diphosphocytidyl-2C methylerythritol 2-phosphate, 460 μM NADH, 1.1% (v/v) DMSO, 0.5 U CMP kinase, 2.4 mU IspF, 1 U lactate dehydrogenase, 1 U pyruvate kinase in 180 μL of solution. Solutions were incubated at 27° C. and monitored photometrically.

Klebsiella pneumonia = assay: Antibacterial preliminary screening KP; format: cell-based; settings: score 0-3; note: key: 0 represents no inhibition; 3 is comparable to commercial antibiotic control
LeIspE = LeIspE (Solanum lycopersicum, UniProt P93841); assay: University of Hamburg photometric enzymatic inhibition assay LeIspE; format: biochemical, Lycopersicon esculentum
Description: as §1
The IspE assay conditions were very similar to the IspD assay in which the assay mixture was composed of 100 mM Tris hydrochloride at pH 8.0 with 10 mM MgCl2, 1 mM dithiothreitol, 2.5 mM potassium phosphoenol pyruvate, 2 mM ATP, 1 mM of 4-Diphosphocytidyl-2-C-methylerythritol, 460 μM NADH, 1.1% (v/v) DMSO, 2.4 mU IspE, 1 U lactate dehydrogenase, 1 U pyruvate kinase in 180 μL of solution. Solutions were incubated at 27° C. and monitored photometrically.

lettuce seeds = assay: Lettuce leaf assay; format: in vivo; design: key: 0 (no effect); 5(complete inhibition or bleaching); settings: ranking 0-5
Source text: The lettuce leaf assay is a qualitative assay used to determine the relative effectiveness of the test compounds at inhibition of germination of seeds and root development as well as causing bleaching of leaves. Isoprenoid synthesis is vital in plants as isoprene-product gibberellins are a class of growth hormones in plants responsible for stimulating cell elongation and division. In addition, some carotenoids are involved in photosynthesis as components of the electron transport chain. MEP pathway inhibitors have the potential to prevent synthesis of these necessary cellular components and growth hormones resulting in inhibition of germination and root development as well as causing chlorosis, or bleaching in the leaves. The lettuce leaf assay, explores the effects of compounds as potential MEP pathway inhibitors by evaluating the effect on bleaching, root development, and germination of lettuce seeds, which all rely on isoprenoid biosynthesis. […] The assay is a qualitative assay and the effects are given rankings from 0 (no effect) to 5 (complete inhibition or bleaching). In this assay, compounds are dissolved in a volatile organic solvent and applied to filter paper in a petri dish. The solvent is allowed to evaporate and lettuce seeds are applied followed by the addition of 5 mL of water to obtain the necessary concentrations. Seeds are allowed to grow and they are observed on day 3 and day 4 for evaluation.

[1] = system: Burkholderia thailandensis; format: cell-based; settings: preliminary screening, score 0-3
Mycobacterium smegmatis = assay: Antibacterial preliminary screening MS; format: cell-based; settings: score 0-3; note: key: 0 represents no inhibition; 3 is comparable to commercial antibiotic control
[2] = molecular target: Lycopersicon esculentum IspE (LeIspE) (Solanum lycopersicum, UniProt P93841); assay: Thermal shift assay against LeIspE; format: binding
Bacillus cereus = assay: Antibacterial preliminary screening BC; format: cell-based; settings: score 0-3; note: key: 0 represents no inhibition; 3 is comparable to commercial antibiotic control
Escherichia coli = assay: Antibacterial preliminary screening EC; format: cell-based; settings: score 0-3; note: key: 0 represents no inhibition; 3 is comparable to commercial antibiotic control
[3] = system: Corynebacterium pseudodiphtheriae; assay: Antibacterial preliminary screening CP; format: cell-based; settings: score 0-3;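 note: 0 is no inhibition and 3 matches the commercial antibiotic control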
[4] = molecular target: T1, Mycobacterium tuberculosis IspD (MtIspD) (Mycobacterium tuberculosis, UniProt P9WKG9); assay: Thermal shift assay against MtIspD; format: binding
T1 sequence (P9WKG9 1-231): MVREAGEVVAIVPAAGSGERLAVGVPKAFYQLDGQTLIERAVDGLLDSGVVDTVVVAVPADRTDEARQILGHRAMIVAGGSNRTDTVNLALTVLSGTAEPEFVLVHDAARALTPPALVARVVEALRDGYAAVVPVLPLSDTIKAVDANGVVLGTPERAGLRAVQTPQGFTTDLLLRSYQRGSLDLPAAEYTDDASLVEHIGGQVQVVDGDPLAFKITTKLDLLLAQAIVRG

AtIspD = AtIspD (Arabidopsis thaliana, UniProt P69834); assay: University of Hamburg photometric enzymatic inhibition assay AtIspD; format: biochemical
Description: as §1
The procedure for AtIspD enzymatic inhibition assay, was performed by making an assay mixture of 100 mM Tris hydrochloride at pH 8.0 with 10 mM MgCl2, 1 mM dithiothreitol, 2.5 mM potassium phosphoenol pyruvate, 2.1 mM CTP, 2 mM ATP, 1 mM of (2R,3S)-2,3-dihydroxy-4-oxopentyl phosphate, 460 μM NADH, 1.1% (v/v) DMSO, 0.4 U IspE, 1 U lactate dehydrogenase, 1 U pyruvate kinase and 2.4 mU IspD in 180 μL of solution. Solutions were incubated at 27° C. and monitored photometrically. By preparing the assay mixture with a large excess of IspE compared to IspD, any inhibition of IspE by the test inhibitor would be insignificant compared to IspD and therefore the rate of the reaction is determined by IspD activity.

Pseudomonas aeruginosa = assay: Antibacterial preliminary screening PA; format: cell-based; settings: score 0-3; note: key: 0 represents no inhibition; 3 is comparable to commercial antibiotic control
Micrococcus luteus = assay: Antibacterial preliminary screening ML; format: cell-based; settings: score 0-3; note: key: 0 represents no inhibition; 3 is comparable to commercial antibiotic control

Lycopersicon esculentum IspE (LeIspE), sequence (P93841 89-401): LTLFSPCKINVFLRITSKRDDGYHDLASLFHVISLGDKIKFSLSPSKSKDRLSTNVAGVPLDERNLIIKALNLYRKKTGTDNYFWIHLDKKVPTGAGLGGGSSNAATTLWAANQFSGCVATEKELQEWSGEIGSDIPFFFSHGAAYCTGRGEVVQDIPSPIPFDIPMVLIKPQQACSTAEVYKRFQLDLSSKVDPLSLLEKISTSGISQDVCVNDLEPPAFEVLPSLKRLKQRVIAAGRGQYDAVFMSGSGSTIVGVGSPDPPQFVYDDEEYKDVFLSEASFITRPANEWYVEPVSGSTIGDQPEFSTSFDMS
LeIspE, sequence (P93841 89-401): as above
AtIspD, sequence (P69834 62-302): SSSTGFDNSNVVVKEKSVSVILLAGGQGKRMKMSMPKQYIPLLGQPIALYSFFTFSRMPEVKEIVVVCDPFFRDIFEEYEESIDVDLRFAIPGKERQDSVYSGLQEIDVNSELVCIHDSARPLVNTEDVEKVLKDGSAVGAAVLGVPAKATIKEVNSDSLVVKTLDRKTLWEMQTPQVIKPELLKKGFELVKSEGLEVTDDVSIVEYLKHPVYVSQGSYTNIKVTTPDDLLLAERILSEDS
AtIspF, sequence (Q9CAK8 53-231): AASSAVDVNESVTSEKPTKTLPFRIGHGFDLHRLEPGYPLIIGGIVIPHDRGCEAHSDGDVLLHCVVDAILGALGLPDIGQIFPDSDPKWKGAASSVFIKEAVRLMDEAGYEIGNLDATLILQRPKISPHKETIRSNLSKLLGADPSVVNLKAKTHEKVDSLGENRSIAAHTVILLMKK

Structure (SMILES)	CX score (Corynebacterium xerosis)	IC50 (AtIspF) [µM]	KP score (Klebsiella pneumonia)	IC50 (LeIspE) [µM]	Bleaching (lettuce seeds; 0.15 mM)	Germination (lettuce seeds; 0.15 mM)	Root Dev. (lettuce seeds; 0.15 mM)	Bleaching (lettuce seeds; 0.3 mM)	Germination (lettuce seeds; 0.3 mM)	Root Dev. (lettuce seeds; 0.3 mM)	BT score [1]	MS score (Mycobacterium smegmatis)	LeIspE melting point change [2] [°C]	LeIspE melting temp [2] [°C]	BC score (Bacillus cereus)	melting point [°C]	EC score (Escherichia coli)	CP score [3]	PA score (Pseudomonas aeruginosa)	ML score (Micrococcus luteus)	further results
O=[N+]([O-])c1cc(-c2nnc(-c3nc4ccccc4s3)o2)cc([N+](=O)[O-])c1 [HGN-334, 2-(benzo[d]thiazol-2-yl)-5-(3,5-dinitrophenyl)-1,3,4-oxadiazole]	0	> 500	0	> 500	0	0	0	0	0	0	0	0	−1.50	48.00	0	180 to 185	0	0	0	0	MtIspD melting point change [4]: 0.0 °C; MtIspD melting temp [4]: 48.0 °C; IC50 (AtIspD): > 500 µM
Clc1ccc(-c2nnc(-c3nc4ccccc4s3)o2)cc1 [HGN-339, 2-(benzo[d]thiazol-2-yl)-5-(4-chlorophenyl)-1,3,4-oxadiazole]	0	–	0	–	0	0	0	0	0	0	0	0	−2.00	47.50	0	161 to 163	0	0	0	0	IC50 (AtIspF; read-out: AtIspF IC50): > 500 µM; IC50 (LeIspE; read-out: LeIspE IC50): > 500 µM; MtIspD melting point change [4]: 1.3 °C; MtIspD melting temp [4]: 49.3 °C; IC50 (AtIspD; read-out: AtIspD IC50): 158 µM
c1ccc(-c2nnc(-c3cc4ccccc4[nH]3)o2)cc1 [HGN-208, 2-(1H-indol-2-yl)-5-phenyl-1,3,4-oxadiazole]	0	> 1000	0	165 ± 47	–	–	–	–	–	–	0	0	–	–	0	254 to 257	0	0	0	0	IC50 (AtIspD): 342 ± 42 µM
